In one data set the test system is hippocampal slice. Nature of the data set: Spontaneous interictal-like bursts in hippocampal slices with modified bathing medium. It counts as cell-based, rat.
A further data set concerns hippocampal tissue slice. Nature of the data set: Stimulation-evoked after discharge and intrinsic optical signals in hippocampal slices (Example 10). The format is cell-based, rat. The method, then: Sprague-Dawley rats (male and female; 25 to 35 days old) were prepared as described in Aghajanian, A. K. and Rasmussen, K., Synapse 31:331, 1989; and Buckmaster, P. S., Strowbridge, B. W., Schwartzdroin, P. A., J. Neurophysiol. 70:1281, 1993. In most hippocampal slice experiments, simultaneous extracellular field electrode recordings were obtained from CA1 and CA3 areas. For stimulation-evoked after discharge (13 slices, 8 animals), the concentration of Mg^2+ in the bathing medium was reduced to 0.9 mM. A bipolar tungsten stimulating electrode was placed on the Schaffer collaterals to evoke synaptically driven field responses in CA1; stimuli consisted to 100 to 300-μs-duration pulses at an intensity of four times population-spike threshold. After discharges were evoked by a 2-[…] of such stimuli delivered at 60 Hz. […] In all treatments, perfusion with furosemide-containing medium was begun after a consistent level of bursting had been established.
For imaging of intrinsic optical signals, the tissue was illuminated with a beam of white light (tungsten filament light and lens system; Dedotec USA, Lodi, N.J.) directed through the microscope condenser. The light was controlled and regulated (power supply: Lambda Electronics, Melville, N.Y.) to minimize fluctuations and filtered (695 nm long-pass) so that the slice was transilluminated with long wavelengths (red). Image frames were acquired with a charge-coupled device camera (Dage-MTI) at 30 Hz and were digitized at 8 bits with a spatial resolution of 512 by 480 pixels by means of an Imaging Technology Series 151 imaging system; gains and offsets of the camera-control site and the analog-to-digital board were adjusted to optimize the sensitivity of the system. Imaging hardware was controlled by a 486-PC-compatible computer running software written by D. Hochman and developed with commercially available software tools (Microsoft's C/C++ Compiler and Imaging Technology's ITEX library). To increase signal-to-noise ratio, an averaged image was composed from 16 individual image-frames, integrated over 0.5 s and averaged together. An experimental series typically involved the continuous acquisition of a series of averaged images over a several minute time period; at least 10 of these averaged images were acquired as control images before stimulation. Pseudocolored images were calculated by subtracting the first control image from subsequently acquired images and assigned a color lookup table to the pixel values. For these images, usually a linear low-pass filter was used to remove high-frequency noise and a linear-histogram stretch was used to map the pixel values over the dynamic range of the system. All operations on these images were linear so that quantitative information was preserved.

For data set [1], the system named is low grade human CNS tumor. Description: Optical imaging of dye perfusion in a low grade human CNS tumor (Example 3). The format is in vivo. The method, then: This example illustrates the use of a contrast enhancing agent, indocyanine green, to identify and spatially localize a low grade human CNS tumor. An MRI scan was conducted before the operation. Additionally, the patient was investigated for tumor tissue using the apparatus described according to the invention and specifically described above.
The area of interest was evenly illuminated by a fiber optic light source with the radiation passing through a beam splitter, controlled by a D.C. regulated power supply (Lambda, Inc.) and passed through a 695 nm long pass filter. Images were acquired with a CCD camera (COHU 6500) fitted to the operating microscope with a specially modified cineadaptor. The cortex was stabilized with a glass footplate. Images were acquired at 30 Hz and digitized at 8 bits (512×480 pixels, using an Imaging Technology, Inc. Series 151 system, Woburn, Mass.). Geometrical transformations were applied to images to compensate for small amounts of patient motion (Wohlberg, Digital Imaging Warping, IEEE Computer Society: Los Alamitos, Calif., 1988). […] Raw data (i.e., no digital enhancement) were used for determining the average optical change in specified regions (average size site was 30×30 pixels or 150-250 um^2). For pseudocolor images, a linear low pass filter removed high frequency noise and linear histogram transformations were applied. Noise was defined as the standard deviation of fluctuations in sequentially acquired control images as 0.003-0.009.
An averaged control image was obtained of the particular cortical surface area of interest. Indocyanine green dye was administered into a peripheral intravenous catheter as a bolus at Time 0. Lettered labels were placed upon the brain by the surgeon overlay the tumor as identified intraoperatively by ultrasound. However, tumors of this type and grade are notoriously difficult to distinguish from normal tissue once the surgical removal of the tumor has begun. Difference images were taken approximately 15 seconds after intravenous injection of dye (indocyanine green at 1 mg/kg), and 30 seconds after dye administration. […] Therefore, it is possible to image even low grade tumors with this apparatus. Furthermore, it is possible to distinguish, intraoperatively, low grade tumor tissue from surrounding normal tissue.

Data set [2] concerns malignant CNS tumor (glioblastoma; astrocytoma, Grade IV). Description: Optical imaging of dye perfusion in a highly malignant CNS tumor (Example 4). The format is in vivo, human. The source says:
This example illustrates the image of a highly malignant CNS tumor (glioblastoma). A patient was imaged in a neurosurgical procedure as described in Example 1. A series of images were taken from the cortex of a patient with a malignant CNS tumor (glioblastoma; astrocytoma, Grade IV). […] A difference image was obtained at 15 seconds after intravenous injection of indocyanine green, showing the dynamics of dye perfusion in the first seconds in malignant tissue are […] to those in the first few seconds of benign tumor tissue. […] Therefore, it is possible with this device to identify malignant tumor tissue, distinguish intraoperatively between normal and malignant tumor tissue, and to distinguish between the various grades of tumor (e.g., normal vs. benign vs. malignant). Thus, it is possible to not only image the location of tumor tissue, but also to grade the tumor with more malignant tumors retaining dye for a longer period of time than a lower grade tumor.

Data set [3] concerns glioma. The settings on record: rat, in vivo. The source says:
This example illustrates a series of experiments using a rat glioma model and optical detection techniques through an intact skull to investigate whether the inventive method and inventive device could function in to image tumor tissue through an intact skull and through intact skin prior to or after surgery. Far red wavelengths of emr are known to penetrate through bone and skin. Imaging of tumor tissue was attempted through the intact skull of the rat. The extent of tumor identified was not as accurate as with the cortex exposed, however, the area lying beneath the skull with tumor tissue was easily identified, localized and continued to concentrate dye after several minutes.
An image was taken for a grey-scale image of the cranial surface of a rat. The sagital suture runs down the center of the image. Tumor cells had been injected into the left side some days earlier so that this animal had developed a glioma on the left hemisphere of its brain. The right hemisphere was normal. A site 1 laid over the suspect region of brain tumor, and a site 2 laid over normal tissue. A difference image was acquired at 1 second after indocyanine green dye had been intravenously injected into the animal. The region containing tumor tissue becomes immediately visible through the intact cranium. […] A concentration of dye in the center of this difference image was observed and depicted dye circulating in the sagital sinus.
The optical changes were determined by the average optical change in a site placed directly over the tumor and over the normal hemisphere. The increase in absorption is a function of the concentration of dye in the tissue at a particular time. The graph labeled “extracranial tumor” is a plot of the dynamics of the absorption changes from the tumor area. The graph labeled “extracranial: normal” is a plot of the dynamics of the absorption change from the non-tumor area.

In data set [4] the test system is glioma. The arrangement: species or system rat. Particulars: in vivo. The source says:
This example illustrates a series of experiments using a rat glioma model intraoperatively to investigate whether the inventive method and inventive device could function in an operating room setting to provide real time information to the surgeon regarding resection of all tumor tissue. The rat glioma model is a standard predictive model and was used to delineate dye uptake, clearance and overall parameters of optical imaging that result in the best images. The advantages of this model are the ability to consistently get reproducible tumors for imaging studies and to be able to rescect tumor under an operating microscope and still find residual tumor with the inventive optical imaging. A disadvantage of this model is the more sarcoma-like appearance of the tumor and a lesser degree of vascularity compared to human gliomas.
Briefly, the rat glioma model uses an ethylnitrosourea-induced F-344 rat tumor line developed from a clonal population of a spinal malignant astrocytoma. […] The glioma cells were maintained in Weymouth's medium supplemented with 10% fetal calf serum. Viable cells (5×10^4) were trypsinized from a monolayer culture and implanted stereotaxically into the right cerebral hemisphere of 30 syngeneic female rats, each weighing 140-160 g. The stereotaxic coordinates for right frontal lobe implantation were 4.5 mm anterior to the frontal zero plane, 3 mm right from the midline and 6 mm deep. The rats were anesthetized for implantation. The heads were shaved and scalps opened, and a 1 mm burr hole made at the appropriate coordinates. The cells were injected through a 27 gauge needle, the needle left in place for 30 sec post injection and the hole was covered with bone wax: The scalp was sutured and the animals observed for 3-4 hrs until they returned to normal activity and feeding. The animals were used !I 0-14 days after tumor implantation. In this model, animals begin to show clinical symptoms from the tumor by 16-19 days, such as decreased activity and feeding, hemiparesis and eventually succumb between 19-27 days from mass effects due to tumor expansion.
Fourteen animals underwent complete study, including imaging before and after resection of the tumor. For study, the animals were anesthetized with 2% isoflurane, and the femoral vein canulated for administration of the dye. Anesthesia was maintained with a chloralsoe (50 mg/kg administered ip) and urethane (160 mg/kg administered ip). The animals were placed in a stereotaxic holder. Imaging studies were then carried out before or after removal of the cranium. The tumor typically occupied the anterior one half to two thirds of the right hemisphere exposure. […]

Setting [5] is: 2.5 mM in medium, 20 minutes of perfusion, stimulation at 60 Hz.

Molecules are shown by their SMILES.

On to `[K+]` [K^+], for which the “spontaneous interictal-like bursts, average” value with hippocampal slice (10 mM in bathing medium, 6 slices, 4 animals) was 81 bursts/min.

Turning to `Nc1ccncc1` [4-AP], the “spontaneous interictal-like bursts, average” value in the data set with hippocampal slice (200 to 300 μM in bathing medium, 4 slices, 2 animals) was determined as 33 bursts/min.

With `NS(=O)(=O)c1cc(C(=O)O)c(NCc2ccco2)cc1Cl` [furosemide], the “field response to the test pulse” value in the data set on hippocampal tissue slice (2.5 mM in medium, 20 minutes of perfusion) is “hyperexcitable field response (multiple population spikes)”. Besides, in the data set on hippocampal tissue slice (setting [5]), the “electrical after discharge (epileptiform) activity” value is recorded as “blocks” and the “stimulation-evoked optical changes (intrinsic optical signal)” value is recorded as “blocks”. For the same compound, the response after washout entry in the data set with hippocampal tissue slice (45 minutes of perfusion with normal bathing medium) was “restoration of the initial response pattern”.

With `CC1(C)C(/C=C/C=C/C=C/C=C2\N(CCCCS(=O)(=O)O)c3ccc4ccccc4c3C2(C)C)=[N+](CCCCS(=O)(=O)[O-])c2ccc3ccccc3c21` [indocyanine green], in data set [1] (1 mg/kg intravenous bolus, approximately 15 and 30 seconds after dye administration), the “tissue staining in difference images, tumor tissue” value was “first tissue staining”. Moreover, the “time at which all tissue (both normal and abnormal) showed staining” value in data set [1] (1 mg/kg intravenous, low grade tumor) was determined as 45 s. Also, in data set [1] (five minutes after dye administration, low grade tumor), the “clearance of dye from the area of interest” value was “complete clearance”. Also, in data set [1] (intravenous), the “entry into low grade tumor tissue compared to normal brain tissue” value is “faster than normal brain tissue”. Moreover, in data set [2] (30 seconds after intravenous injection), the “intensity in malignant tissue compared to normal tissue” value was “even more intense”. Further, in data set [2] (1 minute and 10 minutes after dye injection), the “retention of dye in malignant tumor tissue compared to benign tumor tissue” value is recorded as “retained significantly longer”. Further, in the data set with glioma [3] (60 seconds), the “plateau phase optical change, normal brain” value is 3.1±0.7% and the “plateau phase optical change, tumor tissue” value was determined as 40.5±9.6%. In the data set on glioma [3] (iv), the “peak optical change, normal brain imaged through the cranium” value is reported as 7.8±2.3% and the “peak optical change, tumor imaged through the cranium” value is given as 13.1±3.9%. In the data set with glioma [4] (female, F-344, rat), the “duration of prolonged increase in the optical signal in the tumor” value was over 2 min and the “time after dye injection at which optical signals began to change” value was in the range of 2 to 3 s. Besides, the “dye in tumor tissue versus normal tissue” value with glioma [4] (rat) is given as “still collecting in tumor tissue”. Moreover, the “dye in the cerebrospinal fluid after administration” value in the data set with glioma [4] (rat, iv) is reported as “No dye was found”.

In the case of `CN1CCc2cc3c(cc2[C@H]1[C@@H]1OC(=O)c2c1ccc1c2OCO1)OCO3` [bicuculine], the “spontaneous interictal-like bursts, average” value with hippocampal slice (50 to 100 in bathing medium, 4 slices, 3 animals) amounted to 14 bursts/min.
